*1 amine or outer side, *2 acyl side, *3 side chain or, on linkers, in order; H or OH if unused. Where a SMILES comes first, the peptide text is derived from it. [ ]: non-standard residue; d: D form. X1 = CC(C)C[C@H](N[*:1])[C@@H](O)C[C@H](C(=O)[*:2])C(C)C

The assay has as its target Beta-secretase 1 (Homo sapiens, UniProt P56817).

Beta-secretase 1, sequence (P56817 whole entry): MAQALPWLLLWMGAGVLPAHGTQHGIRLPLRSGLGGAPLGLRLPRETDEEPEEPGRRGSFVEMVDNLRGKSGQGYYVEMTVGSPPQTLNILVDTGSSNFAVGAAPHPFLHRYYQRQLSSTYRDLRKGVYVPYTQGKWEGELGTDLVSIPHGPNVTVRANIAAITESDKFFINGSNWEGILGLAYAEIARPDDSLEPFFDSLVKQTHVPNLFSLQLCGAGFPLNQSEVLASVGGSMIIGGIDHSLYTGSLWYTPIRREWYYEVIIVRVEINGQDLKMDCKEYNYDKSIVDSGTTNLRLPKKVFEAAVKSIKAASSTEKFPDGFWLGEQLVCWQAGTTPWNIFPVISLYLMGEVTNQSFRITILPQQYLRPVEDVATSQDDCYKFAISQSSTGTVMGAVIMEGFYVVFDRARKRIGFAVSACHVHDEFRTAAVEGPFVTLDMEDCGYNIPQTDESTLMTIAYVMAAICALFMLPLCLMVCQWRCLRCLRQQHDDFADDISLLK

`CC(C)C[C@H](NC(=O)[C@H](CC(N)=O)NC(=O)[C@@H](NC(=O)[C@@H](N)CCC(=O)O)C(C)C)[C@@H](O)C[C@H](C(=O)N[C@@H](C)C(=O)N[C@@H](CCC(=O)O)C(=O)N[C@@H](Cc1ccccc1)C(=O)O)C(C)C` (H-EVN[X1]AEF-OH) came in with an IC50 of 165 nM.

For `CCC(C)[C@H](NC(=O)[C@@H](N)CCC(N)=O)C(=O)N[C@@H](CC(=O)O)C(=O)N[C@@H](CC(C)C)[C@@H](O)C[C@@H](C)C(=O)N[C@@H](C)C(=O)N[C@@H](CCC(=O)O)C(=O)N[C@@H](Cc1ccccc1)C(=O)O` (single isomer, unassigned), the midpoint of inhibition, the IC50, lay at 45.5 nM.

For the origin of these results see ChEMBL document CHEMBL1926578, “On a possible neutral charge state for the catalytic dyad in β-secretase when bound to hydroxyethylene transition state analogue inhibitors” (J Med Chem, 2011).
